Test results taken from US20260337156A1, “SOLUBILIZING COMPOUNDS” (Vivesto AB, priority 2022, published 2026).
“Also recorded” adds a separate entry of the source.

Legend:
[1] = appearance of the hydrated drug formulation; assay type: physicochemical
Method: 3.8 mg of compound 1 was dispensed into a 25 mL round bottom flask and dissolved in methanol (2 mL). 240 μL of a stock solution of docetaxel in methanol (5 mg/mL) was added.
The solution was evaporated to dryness in a rotary evaporator. Final drying was performed in a desiccator to remove residual solvent. Hydration of the dried film was performed by adding water for injection (1.2 mL). […] Drug loading capacity is defined as the ratio of amount API:(API+excipient).
(§1) 11 mg of example 1 was dispensed into a 25 mL round bottom flask and dissolved in methanol (2 mL). 740 μL of a stock solution of docetaxel in methanol (4.96 mg/mL) was added. The solution was evaporated to dryness in a rotary evaporator. Final drying was performed in a desiccator to remove residual solvent.
as §1, with “4.5” for “11”, “compound” for “example”, “1500” for “740”, “cabazitaxel” for “docetaxel”, “(1.00” for “(4.96”
as §1, with “4.5” for “11”, “compound” for “example”, “1500” for “740”, “cyclosporin” for “docetaxel”, “(1.00” for “(4.96”, “solvent. […]” for “solvent.”
4.5 mg of compound 4 was dispensed into a round bottom flask and dissolved in methanol (3 mL). […] of a stock solution of docetaxel in methanol (4.96 mg/mL) was added. The solution was evaporated to dryness in a rotary evaporator. Final drying was performed in a desiccator (40 min) to remove residual solvent. Rehydration of the dried film was performed by adding 0.9% sodium chloride solution (1.5 mL).

[2] = particle size and polydispersity index of drug micelles over time (ZetaSizer); assay type: physicochemical; settings: for change of particle size and polydispersity index over time: 0-24 h
Method: Micellar size was measured using a ZetaSizer from Malvern Panalytical.
(§2) A stock solution of docetaxel in methanol was mixed with a stock solution of compound 1 in a round bottom flask. The mixture was evaporated to dryness in a rotary evaporator. Final drying was performed in a desiccator to remove residual solvent. Hydration of the dried film was performed by adding water for injection (1.0 mL) to a concentration of 1 mg/mL of docetaxel. The resulting solution was filtered through a 0.22 μm sterile filter and further diluted with 0.9% sodium chloride solution to 0.5 mg/mL of docetaxel. […]
(§3) A stock solution of cyclosporin in methanol was mixed with a stock solution of compound 1 in a round bottom flask. The mixture was evaporated to dryness in a rotary evaporator. Final drying was performed in a desiccator to remove residual solvent. Hydration of the dried film was performed by adding water for injection (1.0 mL) to a concentration of 1 mg/mL of cyclosporin. The resulting solution was filtered through a 0.22 μm sterile filter and further diluted with 0.9% sodium chloride solution to 0.5 mg/mL of cyclosporin. The final weight ratio of cyclosporin to micelle forming agent was 1:3.
(§4) A stock solution of docetaxel in methanol was mixed with a stock solution of compound 3 in a round bottom flask. The mixture was evaporated to dryness in a rotary evaporator. Final drying was performed in a desiccator to remove residual solvent. Hydration of the dried film was performed by adding water for injection (1.0 mL) to a concentration of 1 mg/mL of docetaxel. The resulting solution was filtered through a 0.22 μm sterile filter and further diluted with 0.9% sodium chloride solution to 0.5 mg/mL of Docetaxel. The final weight ratio of docetaxel to micelle forming agent was 1:3.
as §3, with “compound 3” for “compound 1”
as §2, with “compound 4” for “compound 1”
as §4, with “compound 5” for “compound 3”, “of docetaxel.” for “of Docetaxel.”
A stock solution of cabazitaxel in methanol was mixed with a stock solution of compound 5 in a round bottom flask. The mixture was evaporated to dryness in a rotary evaporator. Final drying was performed in a desiccator to remove residual solvent. Hydration of the dried film was performed by adding water for injection (1.0 mL) to a concentration of 1 mg/mL of cabazitaxel. […]

[3] = cyclosporin:compound 1:3, cyclosporin 0.5 mg/mL
[4] = cyclosporin:compound 1:3, cyclosporin 0.5 mg/mL, time 0 h
[5] = cyclosporin:compound 1:3, cyclosporin 0.5 mg/mL, time 1 h
[6] = cyclosporin:compound 1:3, cyclosporin 0.5 mg/mL, time 2 h
[7] = cyclosporin:compound 1:3, cyclosporin 0.5 mg/mL, time 4 h
[8] = cyclosporin:compound 1:3, cyclosporin 0.5 mg/mL, time 6 h
[9] = cyclosporin:compound 1:3, cyclosporin 0.5 mg/mL, time 24 h
[10] = docetaxel:compound 1:5, docetaxel 0.5 mg/mL, time 0 h
[11] = docetaxel:compound 1:5, docetaxel 0.5 mg/mL, time 1 h
[12] = docetaxel:compound 1:5, docetaxel 0.5 mg/mL, time 2 h
[13] = docetaxel:compound 1:5, docetaxel 0.5 mg/mL, time 4 h
[14] = docetaxel:compound 1:5, docetaxel 0.5 mg/mL, time 6 h
[15] = docetaxel:compound 1:5, docetaxel 0.5 mg/mL, time 24 h
[16] = docetaxel:compound 1:3, docetaxel 0.5 mg/mL, time 0 h
[17] = docetaxel:compound 1:3, docetaxel 0.5 mg/mL, time 1 h
[18] = docetaxel:compound 1:3, docetaxel 0.5 mg/mL, time 2 h
[19] = docetaxel:compound 1:3, docetaxel 0.5 mg/mL, time 4 h
[20] = docetaxel:compound 1:3, docetaxel 0.5 mg/mL, time 6 h
[21] = docetaxel:compound 1:3, docetaxel 0.5 mg/mL, time 24 h

Row | SMILES | appearance of formulation ([1]; formulation with docetaxel) | change of particle size and polydispersity index over time [2, 3] | Particle size [2, 4] [nm] | Polydispersity index [2, 4] | Particle size [2, 5] [nm] | Polydispersity index [2, 5] | Particle size [2, 6] [nm] | Polydispersity index [2, 6] | Particle size [2, 7] [nm] | Polydispersity index [2, 7] | Particle size [2, 8] [nm] | Polydispersity index [2, 8] | Particle size [2, 9] [nm] | Polydispersity index [2, 9] | further results
1 | COc1cc(C)c(/C=C/C(C)=C/C=C/C(C)=C/C(=O)N(CCS(=O)(=O)[O-])C2CCCCC2)c(C)c1C.[Na+] [Compound 1] | yellow transparent solution | Small increases in the particle size and variations of polydispersity index over time were noted; also recorded: The changes were within acceptable range | 30.71 | 0.10 | 44.70 | 0.22 | 41.29 | 0.10 | 44.53 | 0.10 | 49.61 | 0.19 | 51.37 | 0.14 | appearance of formulation ([1]; formulation with cabazitaxel, 1 mg/mL in 0.9% NaCl): yellow transparent solution; appearance of formulation ([1]; formulation with cyclosporin, 1 mg/mL in 0.9% NaCl): yellow transparent solution; change of particle size and polydispersity index over time ([2]; docetaxel:compound 1:5, docetaxel 0.5 mg/mL): Small increases in the particle size and polydispersity index over time were noted; also recorded: The changes were within acceptable range; Particle size [2, 10]: 30.77 nm; Polydispersity index [2, 10]: 0.10; Particle size [2, 11]: 36.60 nm; Polydispersity index [2, 11]: 0.16; Particle size [2, 12]: 39.44 nm; Polydispersity index [2, 12]: 0.16; Particle size [2, 13]: 41.38 nm; Polydispersity index [2, 13]: 0.18; Particle size [2, 14]: 41.19 nm; Polydispersity index [2, 14]: 0.20; Particle size [2, 15]: 43.98 nm; Polydispersity index [2, 15]: 0.21
2 | COc1cc(C)c(/C=C/C(C)=C/C=C/C(C)=C/C(=O)N(C)CCS(=O)(=O)[O-])c(C)c1C.[Na+] [Compound 3] | transparent yellow solution | Small variations in the particle size and polydispersity index over time were noted; also recorded: The changes were within acceptable range | 8.46 | 0.31 | 6.77 | 0.21 | 6.60 | 0.19 | 6.58 | 0.18 | 6.68 | 0.21 | 7.39 | 0.32 | change of particle size and polydispersity index over time ([2]; docetaxel:compound 1:3, docetaxel 0.5 mg/mL): Small variations in the particle size and polydispersity index over time were noted; also recorded: The changes were within acceptable range; Particle size [2, 16]: 6.19 nm; Polydispersity index [2, 16]: 0.11; Particle size [2, 17]: 7.19 nm; Polydispersity index [2, 17]: 0.11; Particle size [2, 18]: 10.06 nm; Polydispersity index [2, 18]: 0.26; Particle size [2, 19]: 10.18 nm; Polydispersity index [2, 19]: 0.27; Particle size [2, 20]: 10.25 nm; Polydispersity index [2, 20]: 0.27; Particle size [2, 21]: 6.20 nm; Polydispersity index [2, 21]: 0.14
